The record followed here is paper PMC12057046, “Elucidation of short linear motif-based interactions of the MIT and rhodanese domains of the ubiquitin-specific protease 8” (Biology Direct, 2025).

The first assay has as its target T1, USP8 Rhod domain (Homo sapiens, UniProt P40818).
T1 construct: USP8 Rhod (174–317) (UniProt: P40818); GST (cleaved yes); made in house; host or cells: Escherichia coli BL21-Gold (DE3)
T1 sequence (P40818 174-317): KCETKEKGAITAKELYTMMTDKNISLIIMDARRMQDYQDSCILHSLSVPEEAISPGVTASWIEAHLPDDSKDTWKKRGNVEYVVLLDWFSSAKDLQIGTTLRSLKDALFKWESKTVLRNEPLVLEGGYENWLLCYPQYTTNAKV
Briefly: Peptide-phage display-based deep mutational scanning (DMS), USP8 Rhod domain. As to conditions: PSSM, library USP8_DMS, days 2,3; position 7. The class given is binding.
On to “KIAA1614_Q5VZ46_569_584 G7I (MERVLGILSSPLRLLP; peptide 569-584; UniProt Q5VZ46 569-584, looked up, variant G7I)”, for which the “enrichment_relative_to_wt at position 7 (wt G)” value is recorded as -2.84 and the “proportion of amino acid at position 7 (wt G)” value was 0.00545.

Still in this assay, the particulars now being: ProP-PD DMS, bait USP8_Rhodanese__P40818_174_317; pair wild-type GMERVLGGLSSPLRLL (wt_00013) vs mutant; positive where wild-type fraction is higher, negative where mutant fraction is higher.
Turning to GMERVLGGLISPLRLL, the hit_pair_ratio worked out at 321.97.
GMERVLGGLPSPLRLL returned a hit_pair_ratio of 131.67.
The same measure, in the same setting: the value for GMERVLGGLSSPLRGL was 160.99; that for GMERVLGGLSSPGRLL was 32.20.
Same read-out and setting: the figure for GMERVLGGGSSPLRLL is 20.85; for GMERVLGGLSSPRRLL it is 160.99; for GMERVLGGLSDPLRLL it is -19.71.
Still for that read-out and setting: the figure for GMERVLGGLVSPLRLL is 321.97; for GMERVLGGLSSPKRLL it is 321.97.

The same assay, now with this note: ProP-PD pairs, bait USP8_Rhodanese__P40818_174_317; wild-type/mutant pair, wild type KIAA1614 569-584 GMERVLGGLSSPLRLL (wt_00013).
GMERVLVGLSSPLRLL returned a hit_pair_ratio of -3.34.
The same measure, in the same setting: the figure for GMQRVLGGLSSPLRLL is 1.88; for GMERVTGGLSSPLRLL it is 40.25; for GMERSLGGLSSPLRLL it is 12.88.
The same measure, in the same setting: the figure for GIERVLGGLSSPLRLL is -4.51; for GMERVLKGLSSPLRLL it is 131.67; for GMERVLGGPSSPLRLL it is 2.15.
On the same count and under the same terms, the value for GMERVLNGLSSPLRLL was -1.21; that for GPERVLGGLSSPLRLL was -9.75.
GMEWVLGGLSSPLRLL gave a hit_pair_ratio of 40.25.
Same read-out and setting: the figure for LMERVLGGLSSPLRLL is 64.39.
On the same count and under the same terms, the value for GMERVLSGLSSPLRLL was 2.55; that for GMERVLDGLSSPLRLL was -20.23.
On to KMERVLGGLSSPLRLL, for which the hit_pair_ratio is listed as 10.10.
The same measure, in the same setting: the value for GVERVLGGLSSPLRLL was -8.18.

Staying with this assay, now noted: bait USP8_Rhodanese__P40818_174_317; wild-type/mutant pair ratio of averaged fractions; negative values where mutant fraction is higher.
For the substance GLALWEAKMKQLANRA, the hit_pair_ratio turned out to be 73.80.
Consider QMERVLGGLSSPLRLL, for which the hit_pair_ratio is -4.33.
For the substance GLALWEAKMKQLGERA, the hit_pair_ratio is -3.00.
Same read-out and setting: the figure for GLALWEAKMKQLAFRA is 24.07; for GLALWEAKMKQLAERP it is -3.73.
GLALWEAKMKQLAEFA: the hit_pair_ratio worked out at 208.81.
For the substance GLALWEAKMKQLAERQ, the hit_pair_ratio was 3.47.
Regarding GLALWEAKMKQLAERG, the hit_pair_ratio was 73.80.

Still in this assay, the particulars now being: wild type/mutant pair; bait USP8_Rhodanese__P40818_174_317; vs hit_library_peptide_wt GLALWEAKMKQLAERA; negative where mutant fraction exceeds wild type; ProP-PD pairs (sheet S7.B).
GLALWEYKMKQLAERA registered a hit_pair_ratio of 208.81.
Still for that read-out and setting: the value for GLAFWEAKMKQLAERA was 21.29; that for GLALWEAKSKQLAERA was -2.49.
In turn, GHALWEAKMKQLAERA had a hit_pair_ratio of 175.67.
Still for that read-out and setting: the figure for GWALWEAKMKQLAERA is 11.95.
Same read-out and setting: the value for GFALWEAKMKQLAERA was 114.71; that for GLWLWEAKMKQLAERA was 49.74; that for GLALWEAKIKQLAERA was 101.08.
On the same count and under the same terms, the figure for GLALREAKMKQLAERA is 303.23; for GLAEWEAKMKQLAERA it is 52.71; for GLKLWEAKMKQLAERA it is 369.00.
In turn, GYALWEAKMKQLAERA had a hit_pair_ratio of 276.75.
Regarding GLALWEMKMKQLAERA, the hit_pair_ratio came to 20.50.
On the same count and under the same terms, the value for GLALMEAKMKQLAERA was 16.52.

For a further assay, the system named is USP8 MIT domain. The assay can be described thus: Peptide-phage display-based deep mutational scanning (DMS), USP8 MIT domain. The class given is binding, human. To be noted: bait USP8_MIT__P40818_1_142; EFCAB12 (Q6NXP0) 2-17; pair of mutant with wild-type wt_00016 (MDDDYEAYHSLFLSLL); sheet S3.B_ProP-PD_pairs. The procedure:
The residues of these 16 amino acid-long wild-type peptides were substituted to all natural amino acid residues, except cysteine, in all positions (Supplementary Table S2A). The designed peptide sequences were reverse-translated to oligonucleotides optimized to the codon usage of E. coli. The required flanking regions (5´[…] and 3´[…]) were added for library construction. The library was generated as previously described.
Four rounds of phage selections were carried out using the second generation human disorderome library or the constructed deep mutational scanning library. At least three individual replicates were used for each bait protein. 10 µg of GST-tagged proteins or GST control (diluted in PBS from the stock of proteins kept in the purification elution buffer) were immobilized in 100 µL PBS on a 96-well MaxiSorp (Nunc) plate overnight at 4 °C. The plates were incubated with blocking buffer (with 0.5% BSA in PBS) for 1 h at 4 °C followed by washing with 0.05% Tween 20 in PBS four times. The naïve phage library (10^11 CFU) was diluted in 1/5th volume PEG/NaCl (20% PEG-8000, 0.4 M NaCl) and 1X PBS, incubated on ice for 10 min and centrifuged at 10,000 [drawing 3] g for 10 min. The pellet was resuspended in the volume of PBS (100 µL/ well). The GST-coated control plate was incubated with 100 µL library per well in PBS for 1 h at 4 °C to remove non-specific binders. The supernatant was transferred to the target wells and incubated for 2 h at 4 °C. The wells were washed five times with 0.05% Tween 20 in PBS and the bound phages were eluted with 100 µL per well log-phase E. coli OmniMAX by incubating at 37° C while shaking. After 30 min, M13KO7 helper phages were added and incubated for an additional 45 min. The bacterial cultures were transferred to 1 mL 2YT supplemented with 100 µg/mL carbenicillin, 30 µg/mL kanamycin and 0.3 mM IPTG and grew overnight at 37 °C while shaking. The following day the cultures were centrifuged for 10 min at 2,000 [drawing 4] g, 4 °C. 1/10th volume of 10 [drawing 5] PBS was added to adjust the pH and heated at 65 °C for 10 min. The phage pools from each round were used as in-phages for the next round of selections.
The samples were prepared for NGS as previously described. Peptide-coding regions of the enriched phage pools were amplified and barcoded using Phusion High-Fidelity PCR Master Mix (Thermo Fisher) for 22 cycles and confirmed by 2% agarose gel electrophoresis. The PCR products were normalized with 25 µL Mag-bind Total Pure NGS beads (Omega Biotek) and 10 µL of each eluted sample (Qiagen Elution Buffer) was pooled and cleaned-up with a PCR purification kit (Qiagen). The PCR product was confirmed by 2% agarose electrophoresis and the band was extracted with QIAquick Gel extraction Kit (Qiagen) and eluted with 30 µL TE buffer. The dsDNA was quantified using QuantiT PicoGreen dsDNA Assay Kit (Thermo Fisher) and sent for NGS (Illumina MiSeq v3, 1 × 150 bp read setup, 20% PhiX, NGI SciLifeLab facility, Sweden). The NGS data were demultiplexed, adapter regions were trimmed and sequences with an average quality of at least 20 were translated to peptide sequences. The NGS data were analysed using custom Python scripts. The total read NGS counts for each selection experiment of each peptide sequence were compiled and annotated in PepTools (https://slim.icr.ac.uk/tools/peptools/). Since ProP-PD is in essence a competition assay, the possibility of the input phage library influencing the selection outcome was explored. For this, the Pearson correlation coefficient, p-value and coefficient of determination were calculated for all peptide NGS count fractions in the library coverage vs. in the selections results (Supplementary Fig. S7; Supplementary Table S2B; Supplementary Table S3B; Supplementary Table S7B). Pearson correlation coefficient and p-value were calculated using Python’s SciPy library. […]
For the substance MDDHYEAYHSLFLSLL [mut_04379], the hit_pair_ratio was 28.27.
On the same count and under the same terms, the figure for MDDTYEAYHSLFLSLL [mut_04389] is 15.92; for MDDDYENYHSLFLSLL [mut_04438] it is 2.33.
Still for that read-out and setting: the figure for MDDDYGAYHSLFLSLL [mut_04414] is 33.85; for MDDDYEQYHSLFLSLL [mut_04440] it is 112.94.
MHDDYEAYHSLFLSLL [mut_04343] had a hit_pair_ratio of 337.92.
The same measure, in the same setting: the value for MDDDKEAYHSLFLSLL [mut_04400] was 168.96; that for MDDDVEAYHSLFLSLL [mut_04409] was 337.92.
On the same count and under the same terms, the value for YDDDYEAYHSLFLSLL [mut_04338] was 1.04; that for MDFDYEAYHSLFLSLL [mut_04359] was 112.94; that for MDDDYHAYHSLFLSLL [mut_04415] was 84.48.
Substance DDDDYEAYHSLFLSLL [mut_04322] returned a hit_pair_ratio of 1.56.
Substance MDDDYEMYHSLFLSLL [mut_04437] came in with a hit_pair_ratio of 59.15.
Same read-out and setting: the value for QDDDYEAYHSLFLSLL [mut_04332] was 3.38; that for MDDDYLAYHSLFLSLL [mut_04418] was 84.82; that for MDDDQEAYHSLFLSLL [mut_04405] was 14.11.
In turn, MLDDYEAYHSLFLSLL [mut_04346] displayed a hit_pair_ratio of 33.93.

Still in this assay, the particulars now being: bait USP8_MIT__P40818_1_142; MLPH 482-497; ratio of averaged fractions of wild-type/mutant peptide pair, larger over smaller (direction to be read from the two fractions).
Consider SEVADIESRIAALRAA, for which the hit_pair_ratio turned out to be 7.79.
Same read-out and setting: the figure for SEVSDIESRIAALLAA is 9.42; for SEVSDIESRIAVLRAA it is 2.60.
Still for that read-out and setting: the figure for SEVSDIESRQAALRAA is 2.60; for SEVSDIEHRIAALRAA it is 4.62.
The same measure, in the same setting: the value for SEVSDIESRIAALRYA was 7.79.
Take SEVSDIESRIAALRAF: the hit_pair_ratio came to 7.79.
In the case of SEVSHIESRIAALRAA, the hit_pair_ratio was determined as 7.79.
With SEVSDIESRIAALRAV, the hit_pair_ratio was 1.51.
The same measure, in the same setting: the value for SEVSDIESRKAALRAA was 7.79.

Staying with this assay, now noted: sheet S3.B_ProP-PD_pairs; bait USP8_MIT__P40818_1_142; ratio within the wild-type/mutant pair, larger over smaller averaged fraction (direction from fraction_wt and fraction_mut).
Consider MDDDYEAYHSLFLSLI, for which the hit_pair_ratio is reported as 168.96.
Take MDDDYEAYHSLFLSLF: the hit_pair_ratio is on record as 169.63.
Consider MDDDYEAFHSLFLSLL, for which the hit_pair_ratio came out at 25.99.
For the substance MDDDYEAYHRLFLSLL, the hit_pair_ratio came out at 41.80.
As for MDDDYEAYHSNFLSLL, the hit_pair_ratio amounted to 168.96.
Turning to WEVSDIESRIAALRAA, the hit_pair_ratio is reported as 13.49.
For the substance MDDDYEAYHSLFLHLL, the hit_pair_ratio came out at 2.92.
Take SQVSDIESRIAALRAA: the hit_pair_ratio turned out to be 1.00.
Same read-out and setting: the value for MDDDYEAYHSLKLSLL was 30.72.
